According to PubChem BioAssay AID256 (DTP/NCI, 2004):
Several values for one entry are separate records, joined by “and”; a condition that tells them apart may be missing. Equal values may be shown once. Inconclusive results and toxic doses are left out. How the source made its calls: active means survival T/C of 150% or more; inactive means T/C below 125% in these data.

Tested on: CD2F1 mice, L1210 leukemia ip, survival T/C
Experiment: NCI In Vivo Anticancer Drug Screen. Data for tumor model L1210 Leukemia (intraperitoneal) in CD2F1 (CDF1) mice
Details: higher = longer survival
Summary of the method: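 Ratio T/C, where T is the treated-group value and C the vehicle-dosed control value, from mice implanted with a transplantable tumor.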

[1] = endpoint: mean survival time, dose: 50.0 mg/kg/injection, schedule: Q01DX009 (ip), vehicle: saline with Tween-80
[2] = endpoint: mean survival time, dose: 100.0 mg/kg/injection, schedule: Q01DX009 (ip), vehicle: saline with Tween-80
[3] = endpoint: mean survival time, dose: 200.0 mg/kg/injection, schedule: Q01DX009 (ip), vehicle: saline with Tween-80
[4] = endpoint: mean survival time, dose: 25.0 mg/kg/injection, schedule: Q04DX002 (ip), vehicle: saline with Tween-80
[5] = endpoint: mean survival time, dose: 50.0 mg/kg/injection, schedule: Q04DX002 (ip), vehicle: saline with Tween-80
[6] = endpoint: mean survival time, dose: 100.0 mg/kg/injection, schedule: Q04DX002 (ip), vehicle: saline with Tween-80
[7] = endpoint: mean survival time, dose: 200.0 mg/kg/injection, schedule: Q04DX002 (ip), vehicle: saline with Tween-80

Measured: T/C

CCOC(=O)c1ccc(Nc2nnc(-c3ccc(OC)cc3OC)s2)cc1
inactive: endpoint: mean survival time, dose: 25.0 mg/kg/injection, schedule: Q01DX009 (ip), vehicle: saline with Tween-80 94 % of control | [1] 88 % of control | [2] 88 % of control and 91 % of control

O=C(/C=C/c1ccc2c(c1)OCO2)c1ccc(Cl)cc1
inactive: endpoint: mean survival time, dose: 100.0 mg/kg/injection, schedule: Q04DX003 (ip), vehicle: saline with Tween-80 94 % of control | endpoint: mean survival time, dose: 200.0 mg/kg/injection, schedule: Q04DX003 (ip), vehicle: saline with Tween-80 89 % of control

O=NN(CCCl)C(=O)NCCc1cccc[n+]1[O-]
active: endpoint: mean survival time, dose: 25.0 mg/kg/injection, schedule: Q01DX001 (ip), vehicle: water 173 % of control | endpoint: mean survival time, dose: 50.0 mg/kg/injection, schedule: Q01DX001 (ip), vehicle: water 309 % of control | endpoint: mean survival time, dose: 100.0 mg/kg/injection, schedule: Q01DX001 (ip), vehicle: water 240 % of control
inactive: endpoint: mean survival time, dose: 1.56 mg/kg/injection, schedule: Q01DX001 (ip), vehicle: water 108 % of control | endpoint: mean survival time, dose: 3.13 mg/kg/injection, schedule: Q01DX001 (ip), vehicle: water 116 % of control | endpoint: mean survival time, dose: 6.25 mg/kg/injection, schedule: Q01DX001 (ip), vehicle: water 121 % of control

CC1(C)N=C(N)N=C(N)N1c1ccc(CCCCc2ccc(S(=O)(=O)F)cc2)c(Cl)c1
inactive: endpoint: mean survival time, dose: 13.0 mg/kg/injection, schedule: Q01DX009 (ip), vehicle: saline with Tween-80 116 % of control | endpoint: mean survival time, dose: 20.0 mg/kg/injection, schedule: Q01DX009 (ip), vehicle: saline with Tween-80 120 % of control | endpoint: mean survival time, dose: 45.0 mg/kg/injection, schedule: Q01DX009 (ip), vehicle: saline with Tween-80 93 % of control

CCOc1ccc(Nc2c3ccccc3nc3ccccc23)cc1
inactive: [3] 88 % of control

O=P(O)(O)OCC1OC(n2cnc3c(NCc4ccco4)ncnc32)C(O)C1O (stereo unspecified)
inactive: endpoint: mean survival time, dose: 12.5 mg/kg/injection, schedule: Q01DX005 (ip), vehicle: water 106 % of control | endpoint: mean survival time, dose: 25.0 mg/kg/injection, schedule: Q01DX005 (ip), vehicle: water 106 % of control | endpoint: mean survival time, dose: 50.0 mg/kg/injection, schedule: Q01DX005 (ip), vehicle: water 103 % of control | endpoint: mean survival time, dose: 100.0 mg/kg/injection, schedule: Q01DX005 (ip), vehicle: water 106 % of control

NC(=S)N/N=C/c1ccc2c(c1)OCO2
inactive: [1] 98 % of control | [2] 110 % of control | [3] 98 % of control

COc1ccc2ccccc2c1-c1c(O)ccc2ccccc12
inactive: endpoint: mean survival time, dose: 12.5 mg/kg/injection, schedule: Q01DX009 (ip), vehicle: other 101 % of control | endpoint: mean survival time, dose: 25.0 mg/kg/injection, schedule: Q01DX009 (ip), vehicle: other 97 % of control | endpoint: mean survival time, dose: 50.0 mg/kg/injection, schedule: Q01DX009 (ip), vehicle: other 91 % of control

Nc1ncnc2c1ncn2C1OC(COP(N)(N)=O)C(O)C1O (stereo unspecified)
inactive: endpoint: mean survival time, dose: 12.5 mg/kg/injection, schedule: Q01DX005 (ip), vehicle: distilled water + Tween-80 105 % of control | endpoint: mean survival time, dose: 25.0 mg/kg/injection, schedule: Q01DX005 (ip), vehicle: distilled water + Tween-80 98 % of control | endpoint: mean survival time, dose: 50.0 mg/kg/injection, schedule: Q01DX005 (ip), vehicle: distilled water + Tween-80 96 % of control | endpoint: mean survival time, dose: 100.0 mg/kg/injection, schedule: Q01DX005 (ip), vehicle: distilled water + Tween-80 102 % of control | endpoint: mean survival time, dose: 200.0 mg/kg/injection, schedule: Q01DX005 (ip), vehicle: distilled water + Tween-80 96 % of control

O=C(O)CC(=O)CC(=O)O.[NH-]C1CCCCC1[NH-].[Pt+2]
active: endpoint: median survival time, dose: 100.0 mg/kg/injection, schedule: Q04DX003 (ip), vehicle: saline 162 % of control and 294 % of control | endpoint: median survival time, dose: 200.0 mg/kg/injection, schedule: Q04DX003 (ip), vehicle: saline 241 % of control
inactive: endpoint: median survival time, dose: 3.12 mg/kg/injection, schedule: Q04DX003 (ip), vehicle: saline 101 % of control and 108 % of control | endpoint: median survival time, dose: 6.25 mg/kg/injection, schedule: Q04DX003 (ip), vehicle: saline 114 % of control and 108 % of control | endpoint: median survival time, dose: 12.5 mg/kg/injection, schedule: Q04DX003 (ip), vehicle: saline 118 % of control and 112 % of control | endpoint: median survival time, dose: 25.0 mg/kg/injection, schedule: Q04DX003 (ip), vehicle: saline 122 % of control

O.O=[Se](=O)(O)O.[NH-]C1CCCCC1[NH-].[Pt+2] (stereo unspecified)
inactive: endpoint: mean survival time, dose: 2.0 mg/kg/injection, schedule: Q01DX009 (ip), vehicle: dextrose 88 % of control | endpoint: mean survival time, dose: 3.0 mg/kg/injection, schedule: Q01DX009 (ip), vehicle: dextrose 109 % of control | endpoint: mean survival time, dose: 8.0 mg/kg/injection, schedule: Q04DX003 (ip), vehicle: dextrose 87 % of control

Cc1sc2cc(N)ccc2[n+]1C
inactive: endpoint: mean survival time, dose: 12.5 mg/kg/injection, schedule: Q04DX002 (ip), vehicle: saline with Tween-80 102 % of control | [4] 98 % of control | [5] 95 % of control | [6] 98 % of control | [7] 109 % of control

O=[N+]([O-])O.[NH-]C1CCCCC1[NH-].[NH-]C1CCCCC1[NH-].[Ni+2] (stereo unspecified)
inactive: [5] 110 % of control | [6] 113 % of control

[Cu+2].[NH-]C1(C(=O)O)CCCC1.[NH-]C1(C(=O)O)CCCC1
inactive: endpoint: mean survival time, dose: 2.5 mg/kg/injection, schedule: Q01DX009 (ip), vehicle: saline with Tween-80 89 % of control | endpoint: mean survival time, dose: 5.0 mg/kg/injection, schedule: Q01DX009 (ip), vehicle: saline with Tween-80 100 % of control | endpoint: mean survival time, dose: 5.0 mg/kg/injection, schedule: Q04DX003 (ip), vehicle: saline 91 % of control | endpoint: mean survival time, dose: 10.0 mg/kg/injection, schedule: Q01DX009 (ip), vehicle: saline with Tween-80 94 % of control

C=C1CC23CC[C@H]4[C@@](C)(CCC[C@@]4(C)C(=O)O)[C@@H]2CC[C@]1(OC1OC(COC(C)=O)C(OC(C)=O)C(OC(C)=O)C1OC1OC(COC(C)=O)C(OC(C)=O)C(OC(C)=O)C1OC(C)=O)C3 (stereo partly specified)
inactive: [6] 93 % of control | [7] 89 % of control | endpoint: mean survival time, dose: 400.0 mg/kg/injection, schedule: Q04DX002 (ip), vehicle: saline with Tween-80 96 % of control

NC(=O)c1ccc(OC(F)(F)C(F)Cl)cc1OC(F)(F)C(F)Cl (stereo unspecified)
inactive: [4] 96 % of control | [5] 101 % of control | [6] 101 % of control
